Like-named read-outs stand apart in the source and are kept apart here.
How the values were obtained:
[1] = biological target: T1, α7/5-HT3 Chimeric Ligand Gated Ion Channel (Homo sapiens, UniProt P36544, M226I/T225I); type: binding, human α7 / mouse 5-HT3; details: for IC50: read-out: Fitc-α-Bungoarotoxin Binding (30 nM) IC50
T1 construct: expressed in transfected cells

α7/5-HT3 channel = biological target: T2, α7/5-HT3 channel (Homo sapiens, UniProt P36544, M226I/T225I); test: Calcium flux assay on FLIPR, agonist activity, α7/5-HT3-SHEP cells; type: cell-based, human α7 / mouse 5-HT3; details: for EC50: calcium flux
T2 construct: expressed in transfected cells
T2 sequence (P36544 with tags, fused parts or gaps T225I/M226I): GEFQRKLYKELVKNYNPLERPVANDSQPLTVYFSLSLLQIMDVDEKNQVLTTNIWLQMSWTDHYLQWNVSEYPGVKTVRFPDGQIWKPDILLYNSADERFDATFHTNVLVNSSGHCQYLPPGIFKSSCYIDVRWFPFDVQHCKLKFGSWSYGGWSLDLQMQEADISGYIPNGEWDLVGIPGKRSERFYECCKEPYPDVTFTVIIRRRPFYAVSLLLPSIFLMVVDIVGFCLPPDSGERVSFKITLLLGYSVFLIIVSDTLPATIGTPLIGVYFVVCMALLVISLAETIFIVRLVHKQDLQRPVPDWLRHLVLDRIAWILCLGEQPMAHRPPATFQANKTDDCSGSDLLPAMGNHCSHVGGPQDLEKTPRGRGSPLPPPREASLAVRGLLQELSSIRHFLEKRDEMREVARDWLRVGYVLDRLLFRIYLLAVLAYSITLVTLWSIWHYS
Description: The α7/5-HT3-SHEP or alternatively the human α7 nACHR double mutant SHEP (described below) cells were grown in minimal essential medium (MEM) containing nonessential amino acids supplemented with 10% fetal bovine serum, L-glutamine, 100 units/ml penicillin/streptomycin, 250 ng/ml fungizone, 400 μg/ml Hygromycin-B, and 800 μg/ml Geneticin. The cells were grown in a 37° C. incubator with 6% CO2. The α7/5-HT3-SHEP cells were trypsinized and plated in 96 well plates with dark side walls and clear bottoms (Corning # 3614) at density of […] cells per well two days before analysis. The cells were loaded in a 1:1 mixture of 2 mM Calcium Green-1, AM (Molecular Probes) prepared in anhydrous dimethylsulfoxide and 20% pluonic F-127 (Molecular Probes). This reagent was added directly to the growth medium of each well to achieve a final concentration of 2 μM of Calcium Green-1, AM. The cells were incubated in the dye for one hour at 37° C. and then washed with 4 cycles of Bio-Tek plate washer. Each cycle was programmed to wash each well with four times with either EBSS or MMEBSS. After the third cycle, the cells were allowed to incubate at 37° C. for at least ten minutes. After the fourth cycle final volume in each well was 100 μl. The cells were analyzed on FLIPR (Molecular Devices) for the change in fluorescence after the addition of a 100 μl of a 2× drug stock. FLIPR was set up to excite the dye with at 488 nanometers using 500 mW of power. A 0.5 second exposure was used to illuminate each well. Fluorescence emission was recorded above 525 nm. Fluorescence was detected using a F-stop set of either 2.0 or 1.2.
We compared the physiological Earles Balanced Salt Solution (EBBS) buffer and the special cell culture media (MMEBSS) in the Ca^++functional assay on FLIPR.
The special cell culture media, designated MMEBSS is comprised of 4 mM CaCl2, 0.8 mM MgSO4, 20 mM NaCl, 5.3 mM KCL, 5.6 mM D-Glucose, 120 mM N-Methyl-D-Glucosamine, 9 mM Tris base and 20 mM HEPES. A detailed description of the preparation of MMEBSS is provided below.

α7 nAChR [2] = biological target: T3, α7 nAChR (Homo sapiens, UniProt P36544); details: endogenous α7 nACh receptor; cited from earlier work
T3 sequence (P36544 23-502): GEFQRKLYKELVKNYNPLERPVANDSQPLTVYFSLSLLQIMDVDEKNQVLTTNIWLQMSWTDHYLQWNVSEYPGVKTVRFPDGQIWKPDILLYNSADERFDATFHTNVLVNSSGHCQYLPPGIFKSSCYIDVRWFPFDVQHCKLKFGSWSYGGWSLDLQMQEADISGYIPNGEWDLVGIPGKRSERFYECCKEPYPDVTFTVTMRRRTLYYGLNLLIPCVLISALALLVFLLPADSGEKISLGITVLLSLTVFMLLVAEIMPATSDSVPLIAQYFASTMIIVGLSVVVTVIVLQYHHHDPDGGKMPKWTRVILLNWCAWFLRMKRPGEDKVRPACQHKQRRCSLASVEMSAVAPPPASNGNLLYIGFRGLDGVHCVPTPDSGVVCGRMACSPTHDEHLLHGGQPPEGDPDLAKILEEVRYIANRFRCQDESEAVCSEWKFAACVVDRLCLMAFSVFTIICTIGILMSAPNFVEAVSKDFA

[3] = biological target: double mutant human α7 ligand gated ion channel (Homo sapiens, UniProt P36544, C241S/T230P); details: 100 M nicotine as printed
Chain of double mutant human α7 ligand gated ion channel (P36544 23-502 T230P/C241S): as the sequence (P36544 23-502) above, with T208P, C219S counted along it
Description: The cells were grown in a 37° C. incubator with 6% CO2. […] Each cycle was programmed to wash each well with four times with either EBSS or MMEBSS. […] A 0.5 second exposure was used to illuminate each well. Fluorescence was detected using a F-stop set of either 2.0 or 1.2.

α7 nAChR [4] = biological target: T3, α7 nAChR; details: human receptor; cited from earlier work
chicken α7 nAChR = chicken α7 nAChR (Gallus gallus, UniProt P22770); details: chicken receptor; cited from earlier work
Chain of chicken α7 nAChR (P22770 23-502 limits assumed): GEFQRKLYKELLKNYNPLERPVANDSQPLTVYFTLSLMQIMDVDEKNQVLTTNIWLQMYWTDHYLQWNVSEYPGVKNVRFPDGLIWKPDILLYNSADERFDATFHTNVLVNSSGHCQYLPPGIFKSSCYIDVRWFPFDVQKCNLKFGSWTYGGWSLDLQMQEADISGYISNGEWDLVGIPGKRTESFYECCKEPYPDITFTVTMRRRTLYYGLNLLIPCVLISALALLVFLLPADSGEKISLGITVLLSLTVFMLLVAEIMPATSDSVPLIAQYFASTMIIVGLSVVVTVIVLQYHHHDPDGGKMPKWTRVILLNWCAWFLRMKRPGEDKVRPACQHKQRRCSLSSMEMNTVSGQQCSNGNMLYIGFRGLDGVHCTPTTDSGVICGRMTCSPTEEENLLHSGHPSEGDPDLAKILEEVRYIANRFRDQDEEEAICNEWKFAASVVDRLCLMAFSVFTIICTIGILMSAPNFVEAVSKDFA

T1 sequence (P36544 with tags, fused parts or gaps T225I/M226I): as the sequence (P36544 with tags, fused parts or gaps T225I/M226I) above

SMILES | IC50 [1] | EC50 (α7/5-HT3 channel; MMEBSS) | EC50 (α7 nAChR [2]) | further results
Clc1ccc([C@@H]2C[C@H]3CC[C@@H]2N3)cn1 (racemic) [(+/−) Epibatidine] | 0.09 µM | 0.12 µM | 2 µM | Ki ([1]; read-out: Ki, competition for Fl-btx binding): 0.09 µM
CN1CCCC1c1cccnc1 (single isomer, unassigned; (-)) [(−) Nicotine] | – | – | – | Competition of Fl-btx binding [1]: competes at all concentrations of Fl-btx; Calcium response to agonist in physiological buffer (α7/5-HT3 channel; 100 μM, EBSS, FIG. 6): little calcium was detected; Calcium response to agonist in special cell culture media (α7/5-HT3 channel; 100 μM, MMEBSS, FIG. 6): evoked a large increase in intracellular calcium; Calcium influx [3]: induced a maximal calcium influx
C[N+]1(C)CCN(c2ccccc2)CC1 [1,1-dimethyl-4-phenylpiperazinium] | – | – | – | Agonist character (α7 nAChR [4]): full agonist; Agonist character (chicken α7 nAChR): partial agonist
Cc1cc([C@@H]2CCCN2C)on1 [ABT-418] | 38 µM | 27 µM | 70 µM | –
c1cncc(C2=NCCCC2)c1 [Anabaseine] | – | 6.6 µM | 6 µM | –
COc1ccc(/C=C2\CCCN=C2c2cccnc2)c(OC)c1 [GTS-21] | – | – | 30 µM | IC50 ([1]; 30 nM Fl-btx, whole cell): 16 µM
CNC1(C)C2CCC(C2)C1(C)C (stereo not shown) [Mecamylamine] | > 300 µM | – | – | –
CCN1C[C@]2(COC(=O)c3ccccc3N3C(=O)C[C@H](C)C3=O)CC[C@H](OC)[C@@]34[C@@H]5C[C@H]6[C@H](OC)[C@@H]5[C@](O)(C[C@@H]6OC)[C@](O)([C@@H](OC)[C@H]23)[C@@H]14 [Methyllcaconitine (MLA), Methyllcaconitine] | 0.026 µM | – | – | –

Source: patent publication US7247706B2, “Double mutant alpha-7 nicotinic acetylcholine receptors” (Pharmacia & Upjohn Company, priority 1999, dated 2007)
